Patent US20180078615A1, “USE OF CCL2 TO INHIBIT ABNORMAL UTERINE BLEEDING” (UNIVERSITY OF SOUTH FLORIDA, priority 2015, published 2018)

Columns and labels:
VSMCs [1] = test: Whole genome microarray analysis (Illumina HumanHT-12 v4) of cultured VSMCs treated with progestins; format: cell-based, human; settings: VSMCs treated by P4
Description: Cultured VSMCs (n=3) treated with control medium or medium containing medroxyprogesterone acetate (MPA, 10^−7 M), or etonogestrel (ETO, 10^−7 M) were processed for whole genome analyses using Illumina Human microarray kit. After qRT-PCR confirmation of several up and down regulated genes from microarray data, Ingenuity Pathway Analysis (IPA) determined relevant upstream signaling of LAPC altered gene expression. To investigate the role of genes and relevant signaling molecules identified by IPA, VSMCs (n=3) treated with MPA or ETO±1 or 10 ng/ml recombinant CCL2 (rCCL2)±STAT1 inhibitor, 5′-methyl-thioadenosine (MTA, 100 μM) were analyzed by BrdU incorporation proliferation, TUNEL based ELISA apoptosis and Transwell insert migration assays.
VSMCs were thawed and cultured in medium 231 (M231; Life Technologies) with smooth muscle growth supplement (5% FBS; 2 ng/mL human basic fibroblast growth factor, 0.5 ng/mL human epidermal growth factor, 5 ng/mL heparin, 0.2 μg/mL insulin and 5 μg/mL BSA; Life Technologies) with 100 U/mL penicillin, 100 μg/mL streptomycin, 0.25 μg/mL fungizone. Confluent VSMCs were washed twice with 1×PBS to remove residual serum, passaged in 96-well or 6-well plates and incubated in parallel in M231 with 1% charcoal striped FBS with 0.1% ethanol (vehicle, control) or 10^−7 M MPA (Sigma-Aldrich) or 10^−7 M ETO (Organon) or 10^−7 M P4 (Sigma-Aldrich) for 15 min, 6, 48, and 72 h. VSMCs were then washed with ice-cold PBS and stored at −80° C. for further RNA and protein analyses.
Total RNA was isolated using Qiagen miRNeasy Mini Kit (Qiagen) and RNeasy MinElute Cleanup Kit (Qiagen). The quality of isolated RNAs was confirmed using an Agilent 2100 Bioanalyzer. Microarray analysis was limited to those specimens in which RNA Integrity Number exceeded 8. Microarray processes were performed in the Keck Biotechnology Resource Laboratory at Yale University (New Haven, Conn.) using Illumina Human HT-12 v4 BeadChip (Illumina). Raw data without normalization were analyzed by GeneSpring GX12.5 software (Agilent Technologies-Silicon Genetics). Normalization was performed as described (35). Genes with a fold-change >1.25 and a P value<0.05 were considered differentially expressed. Ingenuity Pathway Analysis (IPA) software (Qiagen) explored molecular and biological networks related to differentially expressed genes.

VSMCs [2] = test: VSMC proliferation assay by BrdU incorporation; format: cell-based, human; settings: 10^−7 M, 48-h treatment, mean±SEM; control 0.81±0.03
Protocol: VSMCs were grown in 96-well plates or 8-well chamber slides and incubated with 10^−7 M of MPA (Sigma-Aldrich) or ETO (Organon) or P4 (Sigma-Aldrich) or vehicle±rCCL2 (R&D Systems)±STAT1 inhibitor, 5′-methyl-thioadenosine (MTA; EMD Millipore) (19) for 48 or 72 h. VSMCs were then analyzed for apoptosis by an ELISA based apoptosis kit (Roche) or cleaved-caspase 3 immunostaining. VSMC proliferation was measured by BrdU incorporation Kit (Cell Signaling). (See further details in SI Materials and Methods).
VSMCs were thawed and cultured in T-75 cell culture flasks in medium 231 (M231; Life Technologies) with smooth muscle growth supplement (5% FBS; 2 ng/mL human basic fibroblast growth factor, 0.5 ng/mL human epidermal growth factor, 5 ng/mL heparin, 0.2 μg/mL insulin and 5 μg/mL BSA; Life Technologies) with 100 U/mL penicillin, 100 μg/mL streptomycin, and 0.25 μg/mL fungizone. Confluent VSMCs were washed twice with 1×PBS to remove residual serum, and then passaged (5,000 cells per well) in 96-well plates and incubated in parallel in M231 with 1% charcoal striped FBS with 0.1% ethanol (vehicle, control), 10^−7 M MPA (Sigma-Aldrich), 10^−7 M ETO (Organon), or 10^−7 M P4 (Sigma-Aldrich)±rCCL2 (monocyte chemotactic protein-1; R&D Systems)±STAT1 inhibitor, 5′-methyl-thioadenosine (MTA; EMD Millipore) for 48 or 72 h.
BrdU (Cell Signaling) 1× in 100-μL M231 was added to each well during the final 24 h of incubation. At the end of 48- or 72-h incubation period, medium was removed and the wells washed twice with ice-cold PBS. VSMC proliferation was measured using BrdU cell proliferation Kit (Cell Signaling) at room temperature. Cells was incubated in 100 μL per well of the fixing/denaturing solution for 30 min, and then replaced by 100 μL per well BrdU detection antibody solution for 1 h. Following three rinses with wash buffer, plates were incubated in HRP-conjugated secondary antibody (100 μL per well) for 30 min. After three additional rinses with wash buffer, tetramethylbenzidine substrate solution (100 μL per well) was added for 20 min and the reaction stopped by adding 100 μL per well STOP solution. Absorbance was measured at 450 nm using Spectra Max190 microplate reader (Molecular Devices) to detect BrdU incorporation in each well.

**Q.** For `CC(=O)[C@H]1CC[C@H]2[C@@H]3CCC4=CC(=O)CC[C@]4(C)[C@H]3CC[C@]12C` [P4, progesterone], which “Fold-change, Chemokine (C-C motif) ligand 2 (CCL2)” value (VSMCs [1]) is on record?
**A.** Its value is −1.289.

**Q.** What about the “Fold-change, Chromosome 9 ORF 167 (C9orf167)” value (VSMCs [1]) of the same molecule?
**A.** Its value is −1.283.

**Q.** And the “Fold-change, Complement factor B (CFB)” value (VSMCs [1])?
**A.** Its value is −1.309.

**Q.** What about the “Fold-change, Complement factor H, transcript variant 2 (CFH)” value (VSMCs [1]) of the same molecule?
**A.** The value was 1.271.

**Q.** What about the “Fold-change, Cyclin C, transcript variant 2 (CCNC)” value (VSMCs [1]) of the same molecule?
**A.** The value was 1.343.

**Q.** What about the “Fold-change, Eukaryotic translation initiation factor 4 gamma, 2, transcript variant 1 (EIF4G2)” value (VSMCs [1]) of the same molecule?
**A.** The value was 1.3.

**Q.** What about the “Fold-change, Fukutin, transcript variant 2 (FKiTN)” value (VSMCs [1]) of the same molecule?
**A.** Its value is −1.299.

**Q.** And the “Fold-change, G protein-coupled receptor 1 (GPR1)” value (VSMCs [1])?
**A.** The value was −1.283.

**Q.** What about the “Fold-change, Homo sapiens thioredoxin domain containing 5, transcript variant 2 (TXNDC5)” value (VSMCs [1]) of the same molecule?
**A.** Its value is 1.361.

**Q.** What about the “Fold-change, Hypothetical LOC100190938 (LOC100190938), transcript variant 2, noncoding RNA” value (VSMCs [1]) of the same molecule?
**A.** Its value is −1.358.

**Q.** What about the “Fold-change, Hypothetical gene supported by AK125735 (LOC441087)” value (VSMCs [1]) of the same molecule?
**A.** Its value is −1.467.

**Q.** What about the “Fold-change, Hypothetical protein FLJ40504 (FLJ40504)” value (VSMCs [1]) of the same molecule?
**A.** The value was −1.27.

**Q.** And the “Fold-change, Hypoxia-inducible factor 1, a subunit, transcript variant 1 (HIF1A)” value (VSMCs [1])?
**A.** The value was 1.328.

**Q.** And the “Fold-change, Integrin beta 1, transcript variant 1C-2 (ITGB1)” value (VSMCs [1])?
**A.** The value was 1.293.

**Q.** What about the “Fold-change, Interleukin 33 (IL33)” value (VSMCs [1]) of the same molecule?
**A.** Its value is 1.275.

**Q.** And the “Fold-change, Janus kinase 1 (JAK1)” value (VSMCs [1])?
**A.** The value was 1.292.

**Q.** What about the “Fold-change, Keratin 34 (KRT34)” value (VSMCs [1]) of the same molecule?
**A.** Its value is 1.268.

**Q.** What about the “Fold-change, Microtubule-associated protein 1A (MAP1A)” value (VSMCs [1]) of the same molecule?
**A.** Its value is −1.269.

**Q.** And the “Fold-change, Minichromosome maintenance complex component 8, transcript variant 1 (MCM8)” value (VSMCs [1])?
**A.** The value was −1.32.

**Q.** What about the “Fold-change, Mitogen-activated protein kinase kinase 2 (MAP2K2)” value (VSMCs [1]) of the same molecule?
**A.** The value was −1.346.

**Q.** What about the “Fold-change, N-deacetylase/N-sulfotransferase (heparan glucosaminyl) 1 (NDST1)” value (VSMCs [1]) of the same molecule?
**A.** The value was −1.306.

**Q.** What about the “Fold-change, OCIA domain containing 1, transcript variant 5 (OCIAD1)” value (VSMCs [1]) of the same molecule?
**A.** Its value is −1.275.

**Q.** What about the “Fold-change, PREDICTED: misc_RNA (LOC100131609)” value (VSMCs [1]) of the same molecule?
**A.** Its value is 1.266.

**Q.** And the “Fold-change, Paralemmin, transcript variant 1 (PALM)” value (VSMCs [1])?
**A.** The value was −1.26.

**Q.** What about the “Fold-change, Polyribonucleotide nucleotidyltransferase 1 (PNPT1)” value (VSMCs [1]) of the same molecule?
**A.** Its value is −1.286.

**Q.** What about the “Fold-change, Retinoic acid receptor responder (tazarotene induced) 1, transcript variant 1, (RARRES1)” value (VSMCs [1]) of the same molecule?
**A.** The value was −1.271.

**Q.** What about the “Fold-change, Retinoic acid receptor responder (tazarotene induced) 1, transcript variant 2, (RARRES1)” value (VSMCs [1]) of the same molecule?
**A.** The value was −1.289.

**Q.** What about the “Fold-change, Ring finger protein 11 (RNF11)” value (VSMCs [1]) of the same molecule?
**A.** Its value is 1.256.

**Q.** What about the “Fold-change, Serum amyloid A1, transcript variant 1 (SAA1)” value (VSMCs [1]) of the same molecule?
**A.** Its value is −1.324.

**Q.** And the “Fold-change, Serum amyloid A1 transcript variant 2 (SAA1)” value (VSMCs [1])?
**A.** The value was −1.566.

**Q.** And the “Fold-change, Solute carrier family 44, member 1 (SLC44A1)” value (VSMCs [1])?
**A.** The value was 1.26.

**Q.** What about the “Fold-change, Staphylococcal nuclease and tudor domain containing 1 (SN D1)” value (VSMCs [1]) of the same molecule?
**A.** Its value is −1.25.

**Q.** And the “Fold-change, Sterol-C4-methyl oxidase-like, transcript variant 1 (SC4MOL)” value (VSMCs [1])?
**A.** Its value is 1.296.

**Q.** And the “Fold-change, Superoxide dismutase 2, mitochondria! transcript variant 2 (SOD2)” value (VSMCs [1])?
**A.** The value was −1.362.

**Q.** What about the “Fold-change, Thioredoxin reductase 1, transcript variant 4 (TXNRD1)” value (VSMCs [1]) of the same molecule?
**A.** Its value is 1.255.

**Q.** And the “Fold-change, Ubiquitin-like modifier activating enzyme 3, transcript variant 2 (UBA3)” value (VSMCs [1])?
**A.** The value was 1.293.

**Q.** What about the “Fold-change, Zinc finger protein 682, transcript variant 1 (ZNF682)” value (VSMCs [1]) of the same molecule?
**A.** The value was −1.254.

**Q.** And the “Fold-change, cDNA FLJ20769 fis, clone COL06674 (PREDICTED: Receptor tyrosine kinase-like orphan receptor 1)” value (VSMCs [1])?
**A.** The value was 1.271.

**Q.** And the “Fold-change, Armadillo repeat containing, X-linked 3, transcript variant 2 (ARMCX3)” value (VSMCs [1]; table entry 5)?
**A.** The value was 1.298.

**Q.** And the “Fold-change, Armadillo repeat containing, X-linked 3, transcript variant 2 (ARMCX3)” value (VSMCs [1]; table entry 10)?
**A.** Its value is 1.284.

**Q.** And the BrdU incorporation (VSMCs [2])?
**A.** The BrdU incorporation was 0.71±0.05.
